Assay results: patent US8337907B2, “Use of volatile oil from plants in preparing medicaments for preventing and treating diabetes” (priority 2007, dated 2012)
Read-outs that look alike come from different tables or passages of the source.

Columns and labels:
[1] = cited from earlier work
[2] = water, ethanol; cited from earlier work
healthy volunteers = assay: test to healthy volunteers; format: in vivo, human; conditions: for postprandial blood glucose peak at breakfast: 0.9 ml at three meals daily, 7 days
Description: A person, Healthy have not any disease.
A person, healthy without any disease. fasting blood glucose was waved in 5.0-5.4 mmol/L (79-96 mg/dl), in postprandial blood glucose 8-12.2 mmol/L ([…]) between. Abnormal glucose tolerance test.

type 2 diabetes patients = conditions: for postprandial blood glucose peak at breakfast: 0.9 ml at three meals daily, 7 days
Source text: Patient keep measurable middling food and drink in the interim.

[3] = test system: delayed type diabetic Wistar rat model (type 1 diabetes); assay: delayed type streptozotocin plus CFA/IFA type 1 diabetes rat model; format: in vivo, Wistar rats; design: unit not given here; conditions: table: d-limonene 0.8 ml/kg; fasting 4 hours, 2 hours after dose; before treating 24.4 ± 2.958; p<0.01
[4] = test system: type 2 diabetes rat model; assay: test of type 2 diabetes rat model (streptozotocin, fast-generated NIDDM model); format: in vivo, Wistar rats; design: unit not given here; conditions: 2.4 ml/kg intubated, fasting 4 hours, blood 2 hours after dose; before treatment 27.14 ± 1.154; p<0.01
healthy rats = assay: blood glucose of healthy rats; conditions: rat, in vivo
[5] = test system: type 1 diabetes rat model (IDDM); assay: test of type 1 diabetes rat model (streptozotocin, day 3-6 after injection); format: in vivo, rats; conditions: 2.4 ml/kg intubated, 2 hours after dose
Source text: Establishment of a type 1 diabetes rat test model. Recent years, more people have definitely expressed that viewed streptozotocin-induced of diabetes test model. Although, it is a model of type 1 diabetes in principle, but can using as a model of type 2 diabetes.

[6] = test system: drug-induced diabetic rats; assay: blood glucose in drug-induced diabetic rats, summary statement; format: in vivo; conditions: oral 0.8-2.4 ml/kg, within 0.5-2 hours
Source text: The present invent can reduce fasting blood glucose of that severe case streptozotocin-induced rats of type 1 and type 2 diabetes.

[7] = Example 6 patient, treatment for 12 weeks
[8] = Example 7 patient, 7 days treatment

C=C(C)C1CC=C(C)CC1 (stereo not shown) [Limonene, 1-methyl-4-prop-1-en-2-yl-cyclohexene]
Perilla acid methyl ester and Dihydrotestosterone Perilla acid methyl ester in plasma ([1]; from initial limonene, after oral administration): 5%
eliminated in the CO2 exhaled ([1]; in vivo): 2%
eliminated in the dejecta ([1]; in vivo): 5%
converted to primary metabolites Dihydrotestosterone acid Perilla and Perilla acid ([1]; of limonene in plasma): about 35%
converted to limonene 1,2-diol ([1]; of the initial volume): about 18%
eliminated in the urine ([1]; within 24 hours): about 60%
solubility [2]: do not in water but in ethanol

C=C(C)[C@H]1CC=C(C)CC1 [d-limonene, (4R)-1-methyl-4-prop-1-en-2-ylcyclohexene]
absorption from the gastrointestinal ([1]; after oral administration): absorbed rapidly
absorbed drug excreted by the urethra ([1]; within 48 hours): 75-95%
blood glucose compared before and after treatment (healthy volunteers; Example 8, healthy person): blood glucose basically unchanged
time of postprandial blood glucose peak (healthy volunteers; Example 8, healthy person): 0.5 h
postprandial blood glucose peak at breakfast (healthy volunteers; Example 8, healthy person): 6.3 to 8.4 mmol/L
blood glucose compared before and after treatment (healthy volunteers; Example 9, person): blood glucose basically unchanged
time of postprandial blood glucose peak (healthy volunteers; Example 9, person): 0.5 h
postprandial blood glucose peak at breakfast (healthy volunteers; Example 9, person, abnormal glucose tolerance test, before 8-12.2 mmol/L): 10.3 to 11.7 mmol/L
effect on postprandial or fasting blood glucose level in healthy (healthy volunteers; human, in vivo): do not reduce postprandial or fasting blood glucose level
postprandial blood glucose peak at breakfast (type 2 diabetes patients; Example 6 patient, before: under 15.6 mmol/L): 11.8 mmol/L
hypoglycemic reaction without food (type 2 diabetes patients; Example 6 patient, 6-8 hours after the meal, after 12 weeks): have not hypoglycemic reaction
time of postprandial blood glucose peak (type 2 diabetes patients; Example 6 patient, 7 days treatment): 1.25 h
peak value time (type 2 diabetes patients; [7]): 0.75 h
postprandial blood glucose peak value (type 2 diabetes patients; [7]): 10.4 mmol/L
postprandial blood glucose peak at breakfast (type 2 diabetes patients; Example 7 patient, before: maximum 23 mmol/L): 18.7 mmol/L
blood glucose level average reduce, before to after treating (type 2 diabetes patients; [8]): 6.99 mmol/L
time of postprandial blood glucose peak (type 2 diabetes patients; [8]): 1.25 h
effect on postprandial blood glucose levels (type 2 diabetes patients; type 2 diabetes patients, 0.9 ml after three meals daily): clear and stably reduce postprandial blood glucose levels
fasting glucose after treating [3]: 17.45 ± 1.886
fasting glucose after treatment [4]: 19.39 ± 6.064
effect on blood glucose of healthy rats (healthy rats): do not reduce blood glucose of healthy rats
Blood glucose, First day ([5]; IDDM group 25.27 ± 2.632, p<0.01): 20.26 ± 5.039 mmol/L
Blood glucose, Four day ([5]; IDDM group 25.97 ± 2.966, p>0.05): 23.32 ± 4.891 mmol/L
Blood glucose, Third day ([5]; IDDM group 26.08 ± 3.896, p<0.05): 21.88 ± 5.754 mmol/L
Blood glucose, 1-4 days Average ([5]; IDDM group 26.17 ± 2.858, p<0.05): 21.89 ± 5.230 mmol/L
Blood glucose, Second day ([5]; IDDM group 27.36 ± 1.243, p<0.01): 22.08 ± 5.421 mmol/L
effect on blood glucose level [6]: blood glucose level reduce a lot
